The assay relates to Ba/F3 cells expressing EGFR-Del/T790M. In words: tumor model using Ba/F3 cells expressing EGFR-Del/T790M. It counts as in vivo, mice.

As usually defined, the inhibition is the relative decrease from the control value, in per cent.

Text: NSCLC cell lines as well as engineered Ba/F3 and NIH3T3 cell lines were used to examine the activity of compounds of formula (I) against 3 general forms of EGFR: native EGFR (the naturally occurring form), EGFR with an activating mutation (delE746_A750 [Del] or L858R; this form is sensitive to first generation EGFR inhibitors), and EGFR with both an activating mutation and a T790M resistance mutation (L858R/T790M or Del/T790M; the addition of the T790M mutation makes this form resistant to first generation EGFR inhibitors). Effects of test compounds on EGFR signaling were assessed by measuring levels of phosphorylated EGFR, effects on in vitro proliferation measured by a growth or viability assay, and effects on in vivo tumor growth measured in mice following daily oral dosing.

Take `COc1cc(N2CCC(N3CCN(C)CC3)CC2)ccc1Nc1ncc(Cl)c(Nc2ccccc2P(C)(C)=O)n1` [AP26113]: where the note is “Mus musculus, BaF3, 24 h, read-out: inhibition of levels of phosphorylated EGFR in the tumor”, the inhibition at 50 mg/kg is more than 80%. For the same compound, the tumor growth inhibition (daily oral dosing with 50 mg/kg) is more than 90%.

Values taken from US20140024620A1, “Methods for Inhibiting Cell Proliferation in EGFR-Driven Cancers” (ARIAD PHARMACEUTICALS, INC., priority 2010, published 2014).
